Reference: ChEMBL document CHEMBL2074061, “Inhibition of transport across the hepatocyte canalicular membrane by the antibiotic fusidate” (Biochem Pharmacol, 2002)

Tests used:
[1] = molecular target: T1, ATP-binding cassette sub-family C member 2 (Rattus norvegicus, UniProt Q63120); assay: TP_TRANSPORTER: inhibition of LTC4 uptake in Mrp2-expressing HEK cells; assay type: functional, cell-based, HEK293
[2] = molecular target: T2, Bile salt export pump (Rattus norvegicus, UniProt O70127); assay: TP_TRANSPORTER: inhibition of Taurocholate uptake in canalicular membrane vesicles of rat liver; assay type: functional, cell membranes, Canalicular membrane vesicle
T2 sequence (O70127 whole entry): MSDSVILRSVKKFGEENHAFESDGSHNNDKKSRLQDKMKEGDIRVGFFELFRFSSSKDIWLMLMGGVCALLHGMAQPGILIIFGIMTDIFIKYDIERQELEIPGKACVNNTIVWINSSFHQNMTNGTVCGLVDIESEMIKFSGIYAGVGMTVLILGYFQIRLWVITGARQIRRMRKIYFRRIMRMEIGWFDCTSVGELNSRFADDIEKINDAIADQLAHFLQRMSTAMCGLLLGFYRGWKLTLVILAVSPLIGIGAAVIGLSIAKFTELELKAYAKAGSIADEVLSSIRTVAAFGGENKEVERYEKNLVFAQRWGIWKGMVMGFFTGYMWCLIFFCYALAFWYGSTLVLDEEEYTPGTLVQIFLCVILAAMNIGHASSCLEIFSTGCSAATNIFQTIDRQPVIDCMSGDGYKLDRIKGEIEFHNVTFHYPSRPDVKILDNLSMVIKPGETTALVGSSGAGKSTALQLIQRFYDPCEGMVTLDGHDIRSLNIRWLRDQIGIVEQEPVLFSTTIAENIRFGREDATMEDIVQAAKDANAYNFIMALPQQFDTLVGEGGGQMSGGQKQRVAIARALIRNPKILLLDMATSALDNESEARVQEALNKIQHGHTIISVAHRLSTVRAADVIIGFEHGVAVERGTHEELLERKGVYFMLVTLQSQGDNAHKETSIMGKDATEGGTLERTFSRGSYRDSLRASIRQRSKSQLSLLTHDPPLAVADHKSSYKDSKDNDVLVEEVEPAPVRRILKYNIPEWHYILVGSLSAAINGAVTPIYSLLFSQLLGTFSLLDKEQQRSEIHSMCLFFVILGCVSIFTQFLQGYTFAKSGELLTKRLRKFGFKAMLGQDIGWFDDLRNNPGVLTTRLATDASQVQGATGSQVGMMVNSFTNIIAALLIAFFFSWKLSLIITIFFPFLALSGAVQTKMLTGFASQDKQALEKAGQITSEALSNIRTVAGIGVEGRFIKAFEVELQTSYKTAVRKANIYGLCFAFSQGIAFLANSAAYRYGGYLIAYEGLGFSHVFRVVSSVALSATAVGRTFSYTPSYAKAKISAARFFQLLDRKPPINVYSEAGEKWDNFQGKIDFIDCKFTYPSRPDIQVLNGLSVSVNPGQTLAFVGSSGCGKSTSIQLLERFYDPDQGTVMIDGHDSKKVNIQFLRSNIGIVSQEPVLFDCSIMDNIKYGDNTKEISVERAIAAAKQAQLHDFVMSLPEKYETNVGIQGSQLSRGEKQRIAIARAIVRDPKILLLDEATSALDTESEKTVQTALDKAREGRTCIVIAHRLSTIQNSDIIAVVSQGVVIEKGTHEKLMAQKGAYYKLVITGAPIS

[3] = molecular target: T1, ATP-binding cassette sub-family C member 2; assay: TP_TRANSPORTER: inhibition of E217betaG uptake in canalicular membrane vesicles of rat liver; assay type: functional, cell membranes, Canalicular membrane vesicle
[4] = molecular target: T1, ATP-binding cassette sub-family C member 2; assay: TP_TRANSPORTER: inhibition of LTC4 uptake in canalicular membrane vesicles of rat liver; assay type: functional, cell membranes, Canalicular membrane vesicle

T1 sequence (Q63120 whole entry): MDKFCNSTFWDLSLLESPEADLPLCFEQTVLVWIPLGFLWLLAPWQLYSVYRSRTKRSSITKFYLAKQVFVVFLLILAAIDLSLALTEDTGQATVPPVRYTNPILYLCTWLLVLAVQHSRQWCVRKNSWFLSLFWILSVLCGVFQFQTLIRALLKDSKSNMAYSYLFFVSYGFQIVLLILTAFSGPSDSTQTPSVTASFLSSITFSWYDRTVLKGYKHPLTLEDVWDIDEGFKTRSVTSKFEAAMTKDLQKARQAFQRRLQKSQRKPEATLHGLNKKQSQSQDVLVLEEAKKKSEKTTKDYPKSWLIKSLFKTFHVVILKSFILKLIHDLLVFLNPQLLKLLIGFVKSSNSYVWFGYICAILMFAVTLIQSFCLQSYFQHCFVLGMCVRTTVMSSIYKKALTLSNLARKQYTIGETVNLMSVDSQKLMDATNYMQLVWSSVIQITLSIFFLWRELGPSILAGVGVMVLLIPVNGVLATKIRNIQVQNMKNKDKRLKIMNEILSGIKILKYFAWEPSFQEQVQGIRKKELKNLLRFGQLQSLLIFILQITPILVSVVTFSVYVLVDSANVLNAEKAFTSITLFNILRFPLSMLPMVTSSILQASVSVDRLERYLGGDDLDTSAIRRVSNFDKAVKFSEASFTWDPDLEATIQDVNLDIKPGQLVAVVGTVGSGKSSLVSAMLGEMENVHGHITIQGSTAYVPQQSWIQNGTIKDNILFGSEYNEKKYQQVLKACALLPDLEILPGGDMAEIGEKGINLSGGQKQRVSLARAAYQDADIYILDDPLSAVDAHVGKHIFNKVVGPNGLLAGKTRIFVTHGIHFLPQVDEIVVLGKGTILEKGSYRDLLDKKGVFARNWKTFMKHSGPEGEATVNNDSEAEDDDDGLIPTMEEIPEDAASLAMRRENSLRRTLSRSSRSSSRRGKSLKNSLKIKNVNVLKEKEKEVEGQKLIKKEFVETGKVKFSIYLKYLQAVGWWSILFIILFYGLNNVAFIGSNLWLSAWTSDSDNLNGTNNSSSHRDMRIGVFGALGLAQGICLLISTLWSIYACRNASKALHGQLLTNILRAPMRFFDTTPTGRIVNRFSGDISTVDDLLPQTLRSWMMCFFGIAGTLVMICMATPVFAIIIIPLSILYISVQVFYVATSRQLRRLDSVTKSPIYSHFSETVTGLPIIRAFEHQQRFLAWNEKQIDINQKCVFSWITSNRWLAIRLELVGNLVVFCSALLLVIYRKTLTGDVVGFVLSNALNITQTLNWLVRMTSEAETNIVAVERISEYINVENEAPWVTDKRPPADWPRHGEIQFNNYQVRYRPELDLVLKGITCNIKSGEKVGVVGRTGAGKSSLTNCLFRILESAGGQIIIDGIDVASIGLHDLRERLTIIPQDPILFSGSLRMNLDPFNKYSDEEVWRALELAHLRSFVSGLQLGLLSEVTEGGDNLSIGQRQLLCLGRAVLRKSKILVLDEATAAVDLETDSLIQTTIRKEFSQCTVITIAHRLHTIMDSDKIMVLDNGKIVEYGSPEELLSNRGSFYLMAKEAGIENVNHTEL

Ki [1]: 13 µM | Ki [2]: 2.2 µM | Ki [3]: 7.6 µM | Ki [4]: 5.5 µM
SMILES: CC(=O)O[C@H]1C[C@@]2(C)[C@@H](C[C@@H](O)[C@H]3[C@@]4(C)CC[C@@H](O)[C@@H](C)[C@@H]4CC[C@@]32C)/C1=C(\CCC=C(C)C)C(=O)O [FUSIDIC ACID]
